According to article PMC3367910 (PLoS ONE, 2012):

What follows are compounds tested on T1, chlorpyrifos hydrolase (CPH).
T1 construct: native enzyme purified from mycelial cell extract; N-terminal MEPDGELSALTQGANS; gene not cloned
Type: biochemical, Cladosporium cladosporioides

SMILES | Km [µM]
CCOP(=S)(OCC)Oc1nc(Cl)c(Cl)cc1Cl [Chlorpyrifos, O, O-diethyl O-(3,5,6-trichloro-2-pyridyl) phosphorothioate] | 6.8 ± 0.4
CCOC(=O)CC(SP(=S)(OC)OC)C(=O)OCC (centres unmarked) [Malathion] | 44.4 ± 2.1
COP(N)(=O)SC (centres unmarked) [Methamidophos] | 31.8 ± 1.7
COP(=S)(OC)Oc1ccc([N+](=O)[O-])cc1 [Methyl parathion] | 12.5 ± 1.4
CCOP(=S)(OCC)Oc1ccc([N+](=O)[O-])cc1 [Parathion] | 9.8 ± 0.3
